In patent US11369614B2, “Telodendrimers with riboflavin moieties and nanocarriers and methods of making and using same” (priority 2017, dated 2022):

Tested on: SKOV3 xenograft tumor
Assay: In vivo and ex vivo tumor targeting by fluorescence imaging
Set-up: species or system nude mice
Conditions: i.v.
Protocol: Raji lymphoma, MDA-MB-231, and SKOV3 xenograft tumor bearing mice model were established by subcutaneous injection of 1×10^7 cells in 100 μL of Matrigel and PBS (1:1 v/v) at the right or left flank of female nude mice aged 4-6 weeks. […] Then the DiD-DOX co-loaded Rf-containing nanoformulations were filtered with 0.22 am sterile filter. Free DiD in PBS was used as the control group. All the formulations were intravenously injected through tail vein. The mice were anaesthetized and imaged by IVIS® (In vivo Imaging System) 200 (perkinElmer) at 0.5, 1, 2, 4, 8, 24, 48, 72 h different time points with the ex/em 625/700 nm. Finally, the mice were euthanized, tumor and all the major organs were taken out for ex vivo imaging. Living Image software (Caliper Life Sciences) were used to define and measure the fluorescence intensity in the place of interest.
Mice were euthanized in the following day. […] The nuclei were stained by DAPI.

Compound: CCCCCCCCCCCCCCCCCCN1/C(=C/C=C/C=C/C2=[N+](CCCCCCCCCCCCCCCCCC)c3ccccc3C2(C)C)C(C)(C)c2ccccc21.[O-][Cl+3]([O-])([O-])[O-] [free DiD, 1,1′-dioctadecyl-3,3,3,3′,3′-tetramethylindodicarbocyanine perchlorate]
- tumor accumulation (in vivo imaging): No specific tumor accumulation
